These results are taken from article PMC8126888 (RSC Medicinal Chemistry, 2020).

The nature of series [1]: in vitro. The note with it: human, microsomes, pH 7.4, HLM CLint, human liver microsomes.
Series [2] can be described thus: in vitro. The note with it: human.
The subject of series [3] is Leishmania infantum MHOM/MA(BE)/67/ITMAP263 intracellular amastigotes. The experiment in a line: microbe, parasite or virus in culture. Conditions: Macrophage, in Mus musculus.
In series [4] the test system is Trypanosoma cruzi, Tulahuen CL2, beta-galactosidase strain. The experiment in a line: microbe, parasite or virus in culture. Conditions: MRC5, read-out: T. cruzi Tulahuen C4 (LacZ) IC50.
Series [5] is described as follows: in vitro. The note with it: mouse, microsomes, pH 7.4, MLM CLint, mouse liver microsomes.
A short description of series [6]: in vitro. Conditions: Swiss, mouse.
Series [7] deals with primary peritoneal mouse macrophages (PMM). Conditions: for SI (vs PMM): PMM IC50 / L. infantum IC50; for IC50: read-out: PMM IC50.
A short description of another series: physchem. Conditions: HPLC, Ascentis Express RP Amide column, pH 7.4, eLogD.
Series [8] relates to Leishmania infantum MHOM/MA(BE)/67/ITMAP263 intracellular amastigotes. The note with it: for IC50: read-out: L. infantum MHOM/MA(BE)/67/ITMAP263 intracellular amastigotes IC50.
In the next series the test system is MRC-5SV2 cells. The experiment in a line: Cytotoxicity assay on MRC-5SV2 cells (resazurin).
Series [9] concerns L. donovani MHOM/ET/67/L82 intracellular amastigotes. The note with it: read-out: L. donovani MHOM/ET/67/L82 intracellular amastigotes IC50.
The mark [10] stands for this setting: read-out: L. Inf. pIC50, from L. infantum intracellular amastigote IC50 (converted).
Where [11] appears, read: read-out: L. infantum MHOM/MA(BE)/67/ITMAP263 intracellular amastigotes IC50.

Like-named read-outs stand apart in the source and are kept apart here.

Turning to `COc1ccc(Cl)cc1S(=O)(=O)N(Cc1ccccc1)Cc1ccccc1` [DNDI0003366072], the microsomal CLint at 0.5 μM came out at 407 µL/min/mg in “in vitro [1]” and 1350 µL/min/mg in the series “in vitro [5]”. Further, the CC50 at 3 days in the series “in vitro [2]” is over 64 µM. Moreover, the IC50 in series [3] (setting [10]) was 1.38 µM; in series [3] (setting [11]), 1.37 µM; in series [4] it was 8.16 µM; in the series “in vitro [6]” it was over 64 µM.

On to `COc1ccc(OC)c(S(=O)(=O)N(CCO)Cc2ccccc2)c1` [DNDI0003366067], for which, in the series “in vitro [1]”, the microsomal CLint at 0.5 μM is 161 µL/min/mg. Besides, the “SI (vs PMM)” value in series [7] is on record as 1. For the same compound, in the series “physchem”, the chromatographic logD is 2.9. In “in vitro [2]”, this compound displayed a CC50 at 3 days of over 64 µM. The IC50 is 52.5 µM in [3] (setting [10]), 52.5 µM in series [3] (setting [11]), 51.2 µM in series [4] and over 64 µM in the series “in vitro [6]”.

On to `CCN(Cc1ccccc1)S(=O)(=O)c1cc(F)ccc1OC` [DNDI0003366070], for which, in the series “in vitro [1]”, the microsomal CLint at 0.5 μM is 383 µL/min/mg. Moreover, the “SI (vs PMM)” value in series [7] came out at 6. Besides, the chromatographic logD in “physchem” is 3.9. Moreover, the CC50 at 3 days in “in vitro [2]” came to 49.6 µM. The IC50 in [3] (setting [10]) was 11 µM; in [3] (setting [11]), 11 µM; in series [4] it was 28.4 µM; in the series “in vitro [6]” it was over 64 µM.

As for `CCN(Cc1ccc(F)cc1)S(=O)(=O)c1cc(Cl)ccc1OC` [DNDI0003366065], the intrinsic clearance (microsomal CLint) at 0.5 μM in the series “in vitro [1]” was determined as 352 µL/min/mg. In addition, the “SI (vs PMM)” value in [7] is reported as 3. The same compound had a chromatographic logD in the series “physchem” of 4.4. Besides, the CC50 at 3 days in “in vitro [2]” turned out to be 59.5 µM. The IC50 was 21.9 µM in series [3] (setting [10]), 22 µM in [3] (setting [11]), 6.88 µM in series [4] and over 64 µM in “in vitro [6]”.

With `Cc1cc(C)c(C#N)c(SCSc2nc(C)cc(C)c2C#N)n1` [DNDI0003297456], the “SI (vs PMM)” value in series [7] is 1. Moreover, the CC50 at 3 days in the series “in vitro [2]” is over 64 µM. Also, the IC50 (in series [3] (setting [10]); in [3] (setting [11]); in [4]; in the series “in vitro [6]”) was over 64 µM throughout.

Turning to `CN(Cc1ccccc1NCC(=O)Nc1cccc(S(=O)(=O)N(C)C)c1)C1CCCCC1` [Compound Z31013342], the IC50 was over 32 µM in series [7], 21.5 µM in series [8] and over 32 µM in [9]. Moreover, the “L. Inf. pIC50” value in series [8] is reported as 4.67. The compound also had a CC50 with MRC-5SV2 cells of over 32 µM.

For `COc1ccc(OC)c(S(=O)(=O)N(Cc2ccc(F)cc2)Cc2ccc(F)cc2)c1` [DNDI0003366069], the “SI (vs PMM)” value in series [7] came out at 119. For the same compound, the CC50 at 3 days in the series “in vitro [2]” is over 64 µM. For the same compound, the IC50 in series [3] (setting [10]) is 0.537 µM; in series [3] (setting [11]), 0.54 µM; in [4] it was 6.35 µM; in the series “in vitro [6]”, over 64 µM.

With `COc1ccc(OC)c(S(=O)(=O)N(Cc2ccccc2)Cc2ccccc2)c1` [Compound Z45508995], the IC50 was over 32 µM in [7], 1.01 µM in series [8] and 1.19 µM in series [9]. Also, the “L. Inf. pIC50” value in [8] amounted to 6. The compound also displayed a CC50 in the series on MRC-5SV2 cells of 6.41 µM.

`CCCCNS(=O)(=O)c1cccc(NC(=O)c2cc(C)c(C)s2)c1` [Compound Z88584860]: the IC50 in [7], in [8] and in series [9] was over 32 µM throughout. In addition, in the series with MRC-5SV2 cells, the CC50 was over 32 µM.

With `Cc1ccc(NC(=O)c2[nH]c(C)c(C(=O)OC(C)C)c2C)cc1S(=O)(=O)N1CCCCC1` [Compound Z51733284], the IC50 was determined as 16 µM in series [7], 10.2 µM in series [8] and 16.2 µM in series [9]. For the same compound, the “L. Inf. pIC50” value in series [8] is 4.99. The CC50 in the series on MRC-5SV2 cells came out at 3.11 µM.

As for `CCOc1ccc(NC(=O)c2[nH]c(C)c(C(=O)OC)c2C)cc1S(=O)(=O)N1CCCC1` [Compound Z29178369], the IC50 in [7], in series [8] and in series [9] was over 32 µM in each case. For the same compound, in the series with MRC-5SV2 cells, the CC50 is over 32 µM.

For the compound `COC(=O)c1cccc(C(=O)Nc2cccc(S(=O)(=O)N3CCCC3)c2)n1` [Compound Z441654950], the IC50 in series [7], in [8] and in series [9] was over 32 µM throughout. Also, in the series with MRC-5SV2 cells, the CC50 was over 32 µM.

As to `CCCCC(=O)Nc1cccnc1S(=O)(=O)CCOc1ccccc1` [DNDI0003363560], in series [7], the “SI (vs PMM)” value turned out to be 1. Besides, in the series “in vitro [2]”, the CC50 at 3 days was 29.7 µM. The IC50 in series [3] (setting [10]) is 32.4 µM; in series [3] (setting [11]), 32.5 µM; in series [4], 14.7 µM; in the series “in vitro [6]”, 32 µM.

As for `CCC(Cc1ccccc1)S(=O)(=O)c1nc(C)cc(C)c1C#N` (centres unmarked) [DNDI0003297459], the “SI (vs PMM)” value in [7] is 3. The compound further had a CC50 at 3 days in the series “in vitro [2]” of over 64 µM. Also, the IC50 in [3] (setting [10]) was 20.4 µM; in series [3] (setting [11]) it was 20.2 µM; in series [4] it was 45.2 µM; in “in vitro [6]” it was over 64 µM.

For the compound `CN(C)S(=O)(=O)c1cccc(NC(=O)CNc2cccc3c2CCCC3)c1` [Compound Z30985744], the IC50 in [7], in series [8] and in series [9] was over 32 µM throughout. The compound further displayed a CC50 in the series with MRC-5SV2 cells of over 32 µM.

With `COc1ccc(S(=O)(=O)N(C)C)cc1NC(=O)CN1C(=O)COc2ccccc21` [Compound Z29560624], the IC50 in series [7], in [8] and in [9] was over 32 µM in each case. Further, the CC50 with MRC-5SV2 cells is over 32 µM.

With `COc1ccc(OC)c(S(=O)(=O)N(C)Cc2ccc(F)cc2)c1` [DNDI0003366066], the microsomal CLint at 0.5 μM in “in vitro [1]” is 414 µL/min/mg. Further, in series [7], the “SI (vs PMM)” value was found to be 5. Moreover, the CC50 at 3 days in the series “in vitro [2]” is over 64 µM. The IC50 in [3] (setting [10]) is 11.7 µM; in series [3] (setting [11]), 11.7 µM; in series [4], 26.7 µM; in the series “in vitro [6]”, over 64 µM.

Take `CCN(CC)S(=O)(=O)c1cc(NC(=O)c2[nH]c(C)c(C(=O)OC)c2C)ccc1C` [Compound Z26467494]: the IC50 was over 32 µM in series [7], 16.1 µM in series [8] and 12 µM in [9]. Further, the “L. Inf. pIC50” value in series [8] is 4.79. In addition, the CC50 in the series with MRC-5SV2 cells was 10.9 µM.

For `COCCN(Cc1ccccc1)S(=O)(=O)c1cc(OC)ccc1OC` [DNDI0003365566], the intrinsic clearance (microsomal CLint) at 0.5 μM in “in vitro [1]” was determined as 253 µL/min/mg. The “SI (vs PMM)” value in series [7] is given as 31. In “in vitro [2]”, the CC50 at 3 days is 39.4 µM. Besides, the IC50 is 2.09 µM in series [3] (setting [10]), 2.07 µM in series [3] (setting [11]), 32.8 µM in series [4] and over 64 µM in the series “in vitro [6]”.

Consider `CCOC(=O)c1c(C)[nH]c(C(=O)Nc2ccc(Cl)c(S(=O)(=O)N3CCCCC3)c2)c1C` [Compound Z30461235], for which the IC50 in series [7] worked out at 16 µM; in series [8], 2.99 µM; in series [9], 3.39 µM. In addition, the “L. Inf. pIC50” value in series [8] worked out at 5.52. The compound further registered a CC50 with MRC-5SV2 cells of 2.17 µM.

As to `CONS(=O)(=O)c1cc(Cl)ccc1OC` [DNDI0003364475], the “SI (vs PMM)” value in [7] is 1. In the series “in vitro [2]”, this compound had a CC50 at 3 days of over 64 µM. The IC50 (in series [3] (setting [10]); in series [3] (setting [11]); in series [4]; in the series “in vitro [6]”) was over 64 µM in each case.

Take `COc1ccc(F)cc1S(=O)(=O)N(Cc1ccccc1)Cc1ccccc1` [DNDI0003366071]: the microsomal CLint at 0.5 μM in “in vitro [1]” was determined as 955 µL/min/mg. Moreover, the “SI (vs PMM)” value in [7] is reported as 47. Also, the CC50 at 3 days in the series “in vitro [2]” was over 64 µM. The IC50 in series [3] (setting [10]) was 1.38 µM; in [3] (setting [11]), 1.37 µM; in [4], 6.82 µM; in the series “in vitro [6]” it was over 64 µM.

In the case of `CCCCNS(=O)(=O)c1cccc(NC(=O)c2cc3ccccc3[nH]2)c1` [Compound Z88584859], the IC50 in [7] is over 32 µM; in series [8], 16.2 µM; in series [9] it was 25.4 µM. Moreover, the “L. Inf. pIC50” value in series [8] was determined as 4.79. The CC50 in the series on MRC-5SV2 cells is over 32 µM.

Consider `CC(=O)Nc1ccc(S(=O)(=O)NCc2ccccc2)cc1` [DNDI0003366092], for which the “SI (vs PMM)” value in series [7] came out at 1. In addition, the CC50 at 3 days in “in vitro [2]” was over 64 µM. Also, the IC50 (in series [3] (setting [10]); in [3] (setting [11]); in [4]; in the series “in vitro [6]”) was over 64 µM each time.

`CCCCNS(=O)(=O)c1cccc(NC(=O)c2cnc(C)cn2)c1` [Compound Z88583029]: the IC50 in [7], in series [8] and in [9] was over 32 µM each time. In the series with MRC-5SV2 cells, this compound registered a CC50 of over 32 µM.

For `COc1ccc(S(=O)(=O)N(Cc2ccccc2C#N)Cc2ccccc2C#N)cc1OC` [Compound Z220633250], the IC50 in series [7] is over 32 µM; in series [8], 4.76 µM; in series [9], over 32 µM. Moreover, the “L. Inf. pIC50” value in series [8] worked out at 5.32. Besides, the CC50 in the series on MRC-5SV2 cells is over 32 µM.

Take `CCOC(=O)c1c(C)[nH]c(C(=O)NNC(=O)c2cccc(S(=O)(=O)N(CC)CC)c2)c1C` [Compound Z30581529]: the IC50 in series [7], in series [8] and in [9] was over 32 µM each time. This compound also yielded a CC50 in the series on MRC-5SV2 cells of over 32 µM.

Consider `CC/C(=C(\c1ccccc1)c1ccc(OCCN(C)C)cc1)c1ccccc1` [Tamoxifen, reference compound], for which, in “in vitro [6]”, the CC50 at 5 days fell in the range of 5 to 10 µM.
